Columns and labels:
ABHD12 [1] = target: T1, ABHD12 (Homo sapiens, UniProt Q8N2K0); assay: Lyso-PS hydrolysis assay (substrate-based), ABHD12-overexpressing HEK293T membrane lysate; assay type: biochemical; details: 17:1 lyso-PS substrate; ABHD12-overexpressed HEK lysate; read-out: IC50 (Substrate-based assay_ABHD12-overexpressed HEK lysate)
T1 construct: expressed in transfected cells; host or cells: HEK293T
T1 sequence (Q8N2K0 1-398): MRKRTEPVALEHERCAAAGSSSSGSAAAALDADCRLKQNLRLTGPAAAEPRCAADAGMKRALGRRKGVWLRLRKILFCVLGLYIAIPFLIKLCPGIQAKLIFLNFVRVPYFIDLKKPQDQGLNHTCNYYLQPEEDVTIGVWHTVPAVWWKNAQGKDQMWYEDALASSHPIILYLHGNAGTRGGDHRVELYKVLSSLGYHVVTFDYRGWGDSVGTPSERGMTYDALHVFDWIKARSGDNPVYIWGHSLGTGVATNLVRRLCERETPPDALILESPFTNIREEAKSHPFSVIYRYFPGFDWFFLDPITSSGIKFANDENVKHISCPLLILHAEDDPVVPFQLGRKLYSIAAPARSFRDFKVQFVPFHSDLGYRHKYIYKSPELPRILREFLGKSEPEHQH
Method: Lyso-PS Hydrolysis Assay:
The lyso-PS lipase activity of ABHD12 was determined as previously described (Blankman, J. L., Long, J. Z., Trauger, S. A., Siuzdak, G. & Cravatt, B. F. ABHD12 controls brain lysophosphatidylserine pathways that are deregulated in a murine model of the neurodegenerative disease PHARC. Proc. Natl. Acad. Sci. U. S. A. 110, 1500-1505, doi:10.1073/pnas.1217121110 (2013)) with some minor modifications. The proteome concentrations were adjusted to 0.25 mg/mL (ABHD12-overexpressing HEK293T membrane) or 0.5 mg/mL (mouse brain membrane) in Dulbecco's phosphate-buffered saline (DPBS) (80 μL/reaction). 20 μL of 500 μM 17:1 lyso-PS in DPBS was added to each reaction (100 μM final concentration) and incubated at 37° C. After 30 min, the reaction was quenched with 400 μL of 2:1 CHCl3/MeOH (v/v) with 1 nmol 15:0 FFA as an internal standard. The mixture was vortexed and centrifuged at 1,400× g to separate the aqueous and organic phase. The organic phase was analyzed by LC-MS (1200 LC/MSD, Agilent Technologies). The separation of the analyte was achieved using a 50 mm×4.6 mm 5 μm Gemini C18 column (Phenomenex) coupled to a guard column (Gemini: C18: 4×3 mm). The LC solvents were as follows: buffer A, […] (95:5, v/v) with 0.1% NH4OH (v/v); and buffer B, iPrOH:MeOH:H2O (60:3 5:5, v/v/v) with 0.1% NH4OH (v/v). The LC method consisted of 0.1 mL/min 20% buffer B for 1.0 min, 0.4 ml/min isocratic mode of 100% buffer B over 7 min and equilibration with 0.5 mL/min 100% buffer A for 3 min. The MS analyses were performed using an electrospray ionization source (ESI) in negative ion mode to measure product formation. MS data were acquired in selected ion monitoring mode at m/z 267.20 for 17:1 FFA and m/z 241.20 for 15:0 FFA.

ABHD12 [2] = target: T2, ABHD12 (Mus musculus, UniProt Q99LR1); assay: Gel-based competitive ABPP, JJH350 probe vs brain membrane proteome; assay type: biochemical; details: read-out: IC50 (ABPP gel_JJH350 probe vs brain mem)
T2 construct: from tissue; host or cells: brain membrane proteome
T2 sequence (Q99LR1 1-398): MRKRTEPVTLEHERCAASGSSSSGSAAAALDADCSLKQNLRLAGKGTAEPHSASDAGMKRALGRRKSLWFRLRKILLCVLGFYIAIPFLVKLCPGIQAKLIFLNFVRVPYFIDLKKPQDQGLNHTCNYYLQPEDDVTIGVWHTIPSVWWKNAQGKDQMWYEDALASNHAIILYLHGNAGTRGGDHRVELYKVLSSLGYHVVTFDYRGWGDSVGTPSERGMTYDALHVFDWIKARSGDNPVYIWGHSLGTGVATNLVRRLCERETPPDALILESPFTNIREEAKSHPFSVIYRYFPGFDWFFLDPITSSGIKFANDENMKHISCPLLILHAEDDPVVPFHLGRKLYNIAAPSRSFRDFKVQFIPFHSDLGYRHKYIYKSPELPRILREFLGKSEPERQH
In short: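 Mouse membrane proteome (1 mg/mL) labeled 45 min at 37 °C with alkyne probe JJH350 (2 μM final) or FP-Rh (1 μM final). JJH350 targets were visualized after CuAAC with rhodamine-azide (1 h, room temperature), SDS-PAGE (10%) and in-gel fluorescence scanning, with band intensities quantified.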

| Structure (SMILES) | IC50 (ABHD12 [1]) [nM] | IC50 (ABHD12 [2]) [nM] |
| --- | --- | --- |
| N#Cc1c(Oc2ccc(OC(F)(F)F)cc2)ccnc1N1CCC(NC(=S)Nc2cccnc2)CC1 [Example 71, 1-(1-(3-Cyano-4-(4-(trifluoromethoxy)phenoxy)pyridin-2-yl)piperidin-4-yl)-3-(pyridin-3-yl)thiourea] | 100 to 1000 | 100 to 1000 |
| Cc1c(Oc2ccc(OC(F)(F)F)cc2)ccnc1N1CCC(NC(=S)Nc2cccnc2)CC1 [Example 72, 1-(1-(3-Methyl-4-(4-(trifluoromethoxy)phenoxy)pyridin-2-yl)piperidin-4-yl)-3-(pyridin-3-yl)thiourea] | ≤ 100 | ≤ 100 |
| COc1ccc(Oc2ccnc(N3CCC(NC(=S)Nc4cccnc4)CC3)c2)cc1 [Example 74, 1-(1-(4-(4-Methoxyphenoxy)pyridin-2-yl)piperidin-4-yl)-3-(pyridin-3-yl)thiourea] | 1000 to 25000 | 1000 to 25000 |

The remaining lines, values ahead:

| IC50 (ABHD12 [1]) [nM] | IC50 (ABHD12 [2]) [nM] | Structure (SMILES) |
| --- | --- | --- |
| ≤ 100 | ≤ 100 | FC(F)(F)Oc1ccc(Oc2ccnc(N3CCC(NC(=S)Nc4cccnc4)CC3)c2Cl)cc1Cl [Example 65, 1-(1-(3-Chloro-4-(3-chloro-4-(trifluoromethoxy)phenoxy)pyridin-2-yl)piperidin-4-yl)-3-(pyridin-3-yl)thiourea] |
| 100 to 1000 | ≤ 100 | FC(F)(F)Oc1cccc(Oc2ccnc(N3CCC(NC(=S)Nc4cccnc4)CC3)c2Cl)c1 [Example 66, 1-(1-(3-Chloro-4-(3-(trifluoromethoxy)phenoxy)pyridin-2-yl)piperidin-4-yl)-3-(pyridin-3-yl)thiourea] |
| 100 to 1000 | ≤ 100 | FC(F)(F)Oc1ccccc1Oc1ccnc(N2CCC(NC(=S)Nc3cccnc3)CC2)c1Cl [Example 67, 1-(1-(3-Chloro-4-(2-(trifluoromethoxy)phenoxy)pyridin-2-yl)piperidin-4-yl)-3-(pyridin-3-yl)thiourea] |

— patent US11897865B2, “ABHD12 inhibitors and methods of making and using same” (THE SCRIPPS RESEARCH INSTITUTE, priority 2018, dated 2024)
